From patent US7118895B2, “Process for producing aglycon by using diglycosidase and flavor-improved food containing the aglycon and converting agent to be used in the process” (Amano Enzyme Inc., priority 2000, dated 2006)

Test system: Crude diglycosidase
Experiment: Examination of temperature in the conversion into isoflavone aglycons by diglycosidase using soybean materials
Format: biochemical, Penicillium multicolor IAM7153
Design: Decomposition efficiency of glycitin family in roasted soy flour / Decomposition efficiency of daidzin family in roasted soy flour / Decomposition efficiency of genistin family in soymilk / Decomposition efficiency of daidzin family in soymilk / Decomposition efficiency of glycitin family in defatted soybean / Decomposition efficiency of daidzin family in defatted soybean: concentration or dose not given beside the values
Outline: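 Temperature series (30-80° C.) of crude diglycosidase, diluted to 1.88 AU/mL in 20 mM acetate pH 4.0, acting on roasted soy flour, soymilk, defatted soybean or soy protein concentrate. Samples quenched with ethanol after 0-6 h, centrifuged, filtered and analyzed by HPLC for glycosides versus aglycons.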

[1] = 30° C., heat treatment of enzyme no, reaction time 0 h
[2] = 30° C., heat treatment of enzyme no, reaction time 1 h
[3] = 30° C., heat treatment of enzyme no, reaction time 3 h
[4] = 30° C., heat treatment of enzyme no, reaction time 6 h
[5] = 30° C., heat treatment of enzyme yes, reaction time 6 h
[6] = 45° C., heat treatment of enzyme no, reaction time 0 h
[7] = 45° C., heat treatment of enzyme no, reaction time 1 h
[8] = 45° C., heat treatment of enzyme no, reaction time 3 h
[9] = 45° C., heat treatment of enzyme no, reaction time 6 h
[10] = 45° C., heat treatment of enzyme yes, reaction time 6 h
[11] = 45 °C, heat treatment of enzyme: no, 0 h
[12] = 45 °C, heat treatment of enzyme: no, 1 h
[13] = 45 °C, heat treatment of enzyme: no, 3 h
[14] = 45 °C, heat treatment of enzyme: no, 6 h
[15] = 45 °C, heat treatment of enzyme: yes, 6 h
[16] = 55° C., heat treatment of enzyme no, reaction time 0 h
[17] = 55° C., heat treatment of enzyme no, reaction time 1 h
[18] = 55° C., heat treatment of enzyme no, reaction time 3 h
[19] = 55° C., heat treatment of enzyme no, reaction time 6 h
[20] = 55° C., heat treatment of enzyme yes, reaction time 6 h
[21] = 55 °C, heat treatment of enzyme: no, 0 h
[22] = 55 °C, heat treatment of enzyme: no, 1 h
[23] = 55 °C, heat treatment of enzyme: no, 3 h
[24] = 55 °C, heat treatment of enzyme: no, 6 h
[25] = 55 °C, heat treatment of enzyme: yes, 6 h
[26] = 65° C., heat treatment of enzyme no, reaction time 0 h
[27] = 65° C., heat treatment of enzyme no, reaction time 1 h
[28] = 65° C., heat treatment of enzyme no, reaction time 3 h
[29] = 65° C., heat treatment of enzyme no, reaction time 6 h
[30] = 65° C., heat treatment of enzyme yes, reaction time 6 h
[31] = 65 °C, heat treatment of enzyme: no, 0 h
[32] = 65 °C, heat treatment of enzyme: no, 1 h
[33] = 65 °C, heat treatment of enzyme: no, 3 h
[34] = 65 °C, heat treatment of enzyme: no, 6 h
[35] = 65 °C, heat treatment of enzyme: yes, 6 h
[36] = 80° C., heat treatment of enzyme no, reaction time 0 h
[37] = 80° C., heat treatment of enzyme no, reaction time 1 h
[38] = 80° C., heat treatment of enzyme no, reaction time 3 h
[39] = 80° C., heat treatment of enzyme no, reaction time 6 h
[40] = 80° C., heat treatment of enzyme yes, reaction time 6 h
[41] = 80 °C, heat treatment of enzyme: no, 0 h
[42] = 80 °C, heat treatment of enzyme: no, 1 h
[43] = 80 °C, heat treatment of enzyme: no, 3 h
[44] = 80 °C, heat treatment of enzyme: no, 6 h
[45] = 80 °C, heat treatment of enzyme: yes, 6 h

O=C(O)CC(=O)OC[C@H]1O[C@@H](Oc2ccc3c(=O)c(-c4ccc(O)cc4)coc3c2)[C@H](O)[C@@H](O)[C@@H]1O [malonyldaidzin, 6″-O-malonyldaidzin]
Decomposition efficiency of daidzin family in concentrated soybean protein [1]: not detected
Decomposition efficiency of daidzin family in defatted soybean [1]: 43.3%
Decomposition efficiency of daidzin family in concentrated soybean protein [2]: not detected
Decomposition efficiency of daidzin family in defatted soybean [2]: 46.6%
Decomposition efficiency of daidzin family in concentrated soybean protein [3]: not detected
Decomposition efficiency of daidzin family in defatted soybean [3]: 45.2%
Decomposition efficiency of daidzin family in concentrated soybean protein [4]: not detected
Decomposition efficiency of daidzin family in defatted soybean [4]: 45.1%
Decomposition efficiency of daidzin family in concentrated soybean protein [5]: not detected
Decomposition efficiency of daidzin family in defatted soybean [5]: 45.4%
Decomposition efficiency of daidzin family in soymilk (30 °C, heat treatment of enzyme: no, 0 h): 56.8%
Decomposition efficiency of daidzin family in soymilk (30 °C, heat treatment of enzyme: no, 1 h): 58.2%
Decomposition efficiency of daidzin family in soymilk (30 °C, heat treatment of enzyme: no, 3 h): 52.8%
Decomposition efficiency of daidzin family in soymilk (30 °C, heat treatment of enzyme: no, 6 h): 46.2%
Decomposition efficiency of daidzin family in soymilk (30 °C, heat treatment of enzyme: yes, 6 h): 56.1%
Decomposition efficiency of daidzin family in roasted soy flour (35 °C, heat treatment of enzyme: no, 0 h): not detected
Decomposition efficiency of daidzin family in roasted soy flour (35 °C, heat treatment of enzyme: no, 1 h): not detected
Decomposition efficiency of daidzin family in roasted soy flour (35 °C, heat treatment of enzyme: no, 3 h): not detected
Decomposition efficiency of daidzin family in roasted soy flour (35 °C, heat treatment of enzyme: no, 6 h): not detected
Decomposition efficiency of daidzin family in roasted soy flour (35 °C, heat treatment of enzyme: yes, 6 h): not detected
Decomposition efficiency of daidzin family in concentrated soybean protein [6]: not detected
Decomposition efficiency of daidzin family in defatted soybean [6]: 43.3%
Decomposition efficiency of daidzin family in concentrated soybean protein [7]: not detected
Decomposition efficiency of daidzin family in defatted soybean [7]: 45.5%
Decomposition efficiency of daidzin family in concentrated soybean protein [8]: not detected
Decomposition efficiency of daidzin family in defatted soybean [8]: 43.7%
Decomposition efficiency of daidzin family in concentrated soybean protein [9]: not detected
Decomposition efficiency of daidzin family in defatted soybean [9]: 41.7%
Decomposition efficiency of daidzin family in concentrated soybean protein [10]: not detected
Decomposition efficiency of daidzin family in defatted soybean [10]: 44.3%
Decomposition efficiency of daidzin family in roasted soy flour [11]: not detected
Decomposition efficiency of daidzin family in soymilk [11]: 57.2%
Decomposition efficiency of daidzin family in roasted soy flour [12]: not detected
Decomposition efficiency of daidzin family in soymilk [12]: 50.2%
Decomposition efficiency of daidzin family in roasted soy flour [13]: not detected
Decomposition efficiency of daidzin family in soymilk [13]: 41.1%
Decomposition efficiency of daidzin family in roasted soy flour [14]: not detected
Decomposition efficiency of daidzin family in soymilk [14]: 30.2%
Decomposition efficiency of daidzin family in roasted soy flour [15]: not detected
Decomposition efficiency of daidzin family in soymilk [15]: 55.8%
Decomposition efficiency of daidzin family in concentrated soybean protein [16]: not detected
Decomposition efficiency of daidzin family in defatted soybean [16]: 43.3%
Decomposition efficiency of daidzin family in concentrated soybean protein [17]: not detected
Decomposition efficiency of daidzin family in defatted soybean [17]: 45.0%
Decomposition efficiency of daidzin family in concentrated soybean protein [18]: not detected
Decomposition efficiency of daidzin family in defatted soybean [18]: 42.7%
Decomposition efficiency of daidzin family in concentrated soybean protein [19]: not detected
Decomposition efficiency of daidzin family in defatted soybean [19]: 40.3%
Decomposition efficiency of daidzin family in concentrated soybean protein [20]: not detected
Decomposition efficiency of daidzin family in defatted soybean [20]: 44.1%
Decomposition efficiency of daidzin family in roasted soy flour [21]: not detected
Decomposition efficiency of daidzin family in soymilk [21]: 57.3%
Decomposition efficiency of daidzin family in roasted soy flour [22]: not detected
Decomposition efficiency of daidzin family in soymilk [22]: 50.9%
Decomposition efficiency of daidzin family in roasted soy flour [23]: not detected
Decomposition efficiency of daidzin family in soymilk [23]: 41.1%
Decomposition efficiency of daidzin family in roasted soy flour [24]: not detected
Decomposition efficiency of daidzin family in soymilk [24]: 31.1%
Decomposition efficiency of daidzin family in roasted soy flour [25]: not detected
Decomposition efficiency of daidzin family in soymilk [25]: 50.8%
Decomposition efficiency of daidzin family in concentrated soybean protein [26]: not detected
Decomposition efficiency of daidzin family in defatted soybean [26]: 43.3%
Decomposition efficiency of daidzin family in concentrated soybean protein [27]: not detected
Decomposition efficiency of daidzin family in defatted soybean [27]: 44.7%
Decomposition efficiency of daidzin family in concentrated soybean protein [28]: not detected
Decomposition efficiency of daidzin family in defatted soybean [28]: 41.6%
Decomposition efficiency of daidzin family in concentrated soybean protein [29]: not detected
Decomposition efficiency of daidzin family in defatted soybean [29]: 37.3%
Decomposition efficiency of daidzin family in concentrated soybean protein [30]: not detected
Decomposition efficiency of daidzin family in defatted soybean [30]: 35.2%
Decomposition efficiency of daidzin family in roasted soy flour [31]: not detected
Decomposition efficiency of daidzin family in soymilk [31]: 56.8%
Decomposition efficiency of daidzin family in roasted soy flour [32]: not detected
Decomposition efficiency of daidzin family in soymilk [32]: 51.7%
Decomposition efficiency of daidzin family in roasted soy flour [33]: not detected
Decomposition efficiency of daidzin family in soymilk [33]: 43.9%
Decomposition efficiency of daidzin family in roasted soy flour [34]: not detected
Decomposition efficiency of daidzin family in soymilk [34]: 35.3%
Decomposition efficiency of daidzin family in roasted soy flour [35]: not detected
Decomposition efficiency of daidzin family in soymilk [35]: 42.4%
Decomposition efficiency of daidzin family in concentrated soybean protein [36]: not detected
Decomposition efficiency of daidzin family in defatted soybean [36]: 43.3%
Decomposition efficiency of daidzin family in concentrated soybean protein [37]: not detected
Decomposition efficiency of daidzin family in defatted soybean [37]: 39.8%
Decomposition efficiency of daidzin family in concentrated soybean protein [38]: not detected
Decomposition efficiency of daidzin family in defatted soybean [38]: 28.8%
Decomposition efficiency of daidzin family in concentrated soybean protein [39]: not detected
Decomposition efficiency of daidzin family in defatted soybean [39]: 17.8%
Decomposition efficiency of daidzin family in concentrated soybean protein [40]: not detected
Decomposition efficiency of daidzin family in defatted soybean [40]: 17.4%
Decomposition efficiency of daidzin family in roasted soy flour [41]: not detected
Decomposition efficiency of daidzin family in soymilk [41]: 57.2%
Decomposition efficiency of daidzin family in roasted soy flour [42]: not detected
Decomposition efficiency of daidzin family in soymilk [42]: 50.8%
Decomposition efficiency of daidzin family in roasted soy flour [43]: not detected
Decomposition efficiency of daidzin family in soymilk [43]: 36.4%
Decomposition efficiency of daidzin family in roasted soy flour [44]: not detected
Decomposition efficiency of daidzin family in soymilk [44]: 23.0%
Decomposition efficiency of daidzin family in roasted soy flour [45]: not detected
Decomposition efficiency of daidzin family in soymilk [45]: 21.8%
